The text below walks through data of patent US6506876B1, “LTA4 hydrolase inhibitor pharmaceutical compositions and methods of use” (G.D. Searle & Co., priority 1994, dated 2003).

Values joined by “and” are separate entries in the source; they are usually repeats but may differ in a detail not shown here. Identical values can stand only once. Counter-ions that a name gives are not always drawn.

The first test addresses T1, recombinant human LTA4 hydrolase (rhLTA4H) (Homo sapiens, UniProt P09960).
T1 sequence (P09960 1-611): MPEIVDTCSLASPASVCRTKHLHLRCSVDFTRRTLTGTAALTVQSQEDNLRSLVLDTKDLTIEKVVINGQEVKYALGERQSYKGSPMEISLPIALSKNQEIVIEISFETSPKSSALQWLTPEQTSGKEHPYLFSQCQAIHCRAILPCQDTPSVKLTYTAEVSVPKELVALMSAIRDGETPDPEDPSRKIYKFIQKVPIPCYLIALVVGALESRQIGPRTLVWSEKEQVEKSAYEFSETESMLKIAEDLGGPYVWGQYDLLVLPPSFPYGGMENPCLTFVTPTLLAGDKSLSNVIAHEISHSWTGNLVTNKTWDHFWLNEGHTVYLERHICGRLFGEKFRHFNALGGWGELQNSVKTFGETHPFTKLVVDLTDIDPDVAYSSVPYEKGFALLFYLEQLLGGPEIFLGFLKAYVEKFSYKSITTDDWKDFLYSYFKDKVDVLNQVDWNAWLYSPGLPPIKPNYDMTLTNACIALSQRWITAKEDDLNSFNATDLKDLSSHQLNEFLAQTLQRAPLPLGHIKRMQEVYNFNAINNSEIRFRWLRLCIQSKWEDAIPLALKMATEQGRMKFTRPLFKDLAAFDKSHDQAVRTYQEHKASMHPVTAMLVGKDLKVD
The experiment in a line: Recombinant human LTA4 hydrolase assay for LTA4 hydrolase inhibitor activity. As to conditions: Recombinant Human LTA4 Hydrolase Assay IC50 LTA4H, recombinant hLTA4H.
Experimental: One or more predetermined amounts of a compound of the invention were incubated in assay buffer (0.1 M potassium phosphate, 5 mg/ml fatty acid free BSA, 10% DMSO, pH 7.4) for 10 minutes at room temperature with 250 ng of recombinant hLTA4H to allow binding, if any, between the enzyme and inhibitor. The stock enzyme solution was 1 mg/ml LTA4 hydrolase, 50 mM Tris, pH 8.0, 150 mM NaCl, 2.5 mM beta-mercaptoethanol, 50% glycerol. […] Each reaction was carried out at room temperature for 10 minutes. The reaction was stopped by diluting 25 μl of the reaction mixture with 500 μl of the assay buffer without DMSO. LTB4 was quantified in the diluted sample by a commercially available enzyme-linked immunoassay [Caymen Chemical Co., Ann Arbor, Mich.] using the method recommended in the manufacturer's instructions and compared to the amount of LTB4 produced in a negative control (i.e., essentially identical conditions except without addition of an inhibitor compound). The IC50 was routinely calculated from the data produced.
For orientation: IC50 means the concentration that gives 50% inhibition. On to `CCOC(=O)[C@@H]1CCN(CCOc2ccc(Cc3ccccc3)cc2)[C@H](C)C1` (relative stereo) [Example 298], for which the IC50 worked out at 2500 nM.

Regarding `c1ccc(Cc2ccc(OCCn3ccc4ncnc-4c3)cc2)cc1` [340 A], the IC50 amounted to 11 nM.

In the case of `c1ccc(Cc2ccc(OCCCn3cnc4cccnc43)cc2)cc1` [341 A], the IC50 was 5700 nM.

As for `c1ccc(COc2ccc(OCCn3cccc4ncnc3-4)cc2)cc1` [346 C], the IC50 is 2200 nM.

As for `c1ccc(Oc2ccc(OCCCn3cnc4cccnc43)cc2)cc1` [350 A], the half-maximal inhibitory concentration (IC50) was 19000 nM.

With `c1ccc(Oc2ccc(OCCCn3cnc4ccncc43)cc2)cc1` [351 A], the IC50 was found to be 1080 nM.

As to `c1ccc(Cc2ccc(OCCn3cnc4cncnc43)cc2)cc1` [357 B], the concentration for half-maximal inhibition (IC50) was 730 nM.

`c1ccc(Cc2ccc(OCCn3cncc4ncnc3-4)cc2)cc1` [357 D]: the IC50 came out at 40 nM.

Regarding `c1ccc(Cc2ccc3c(c2)CC(Cn2cnc4cccnc42)O3)cc1` (stereo not drawn) [359 A], the IC50 was 100000 nM.

As for `c1ccc(Cc2ccc3c(c2)CC(Cn2cnc4ncccc42)O3)cc1` (stereo not drawn) [359 B], the IC50 was 10000 nM.

Regarding `c1ccc(Cc2ccc3c(c2)CC(Cn2cccc4ncnc2-4)O3)cc1` (stereo not drawn) [359 C], the 50% inhibitory concentration (IC50) was found to be 3500 nM.

For the compound `c1ccc(Cc2ccc3c(c2)CC(Cn2nnc4ncccc42)O3)cc1` (stereo not drawn) [360 C], the IC50 was found to be 5000 nM.

On to `c1ccc(Cc2ccc3c(c2)CC(Cn2nnc4cnccc42)O3)cc1` (stereo not drawn) [361 B], for which the 50% inhibitory concentration (IC50) was found to be 7000 nM.

For `c1ccc(Oc2ccc(OCCN3CCCC3)nc2)cc1` [Example 65, 5-phenoxy-2-[2-(1-pyrrolidinyl)ethoxy]pyridine], the IC50 stood at 110 nM.

Turning to `c1ccc(Oc2ccc(NCCN3CCCC3)cc2)cc1` [Example 71, N-(4-phenoxyphenyl)-1-pyrrolidine ethanamine, monohydrochloride], the concentration for half-maximal inhibition (IC50) came out at 6500 nM.

Take `Clc1cc(OCCN2CCCC2)ccc1Cc1ccccc1` [Example 114]: the IC50 is 3000 nM.

Take `Cc1cc(Cc2ccccc2)ccc1OCCN1CCCC1` [Example 117]: the IC50 was found to be 3900 nM.

For `Cc1cc(OCCN2CCCC2)ccc1Cc1ccccc1` [Example 118], the half-inhibitory concentration (IC50) was 9000 nM.

As to `Fc1cc(Cc2ccccc2)cc(F)c1OCCN1CCCC1` [Example 119], the 50% inhibitory concentration (IC50) came out at 4000 nM.

As for `Fc1cc(OCCN2CCCC2)c(F)cc1Cc1ccccc1` [Example 120], the IC50 is 8000 nM.

On to `COC(=O)c1cc(Cc2ccccc2)ccc1OCCN1CCCC1` [Example 123], for which the concentration for half-maximal inhibition (IC50) amounted to 7000 nM.

For the compound `COc1cc(Cc2ccccc2)ccc1OCCN1CCCC1` [Example 124], the IC50 worked out at 25000 nM.

In the case of `COc1ccccc1Cc1ccc(OCCN2CCCC2)cc1` [Example 129], the concentration for half-maximal inhibition (IC50) amounted to 16000 nM.

For `c1cc(OCCN2CCCC2)ccc1Cc1ccc2c(c1)OCO2` [Example 130], the IC50 was 170 nM.

`c1ccc2nc(Cc3ccc(OCCN4CCCC4)cc3)ccc2c1` [Example 131]: the IC50 turned out to be 4300 nM.

On to `Fc1ccccc1Cc1ccc(OCCN2CCCC2)cc1` [Example 141], for which the half-inhibitory concentration (IC50) came out at 13 nM.

For `Clc1cccc(Cc2ccc(OCCN3CCCC3)cc2)c1` [Example 143], the concentration for half-maximal inhibition (IC50) stood at 56 nM.

On to `COc1ccc(Cc2ccc(OCCN3CCCC3)cc2)cc1F` [Example 144], for which the IC50 was found to be 80 nM.

For `c1ccc2cc(COc3ccc(OCCN4CCCC4)cc3)ccc2c1` [Example 200], the IC50 is 350 nM.

As for `c1ccc2ncc(COc3ccc(OCCN4CCCC4)cc3)cc2c1` [Example 201], the IC50 stood at 330 nM.

As for `Brc1ccc(COc2ccc(OCCN3CCCC3)cc2)cc1` [Example 203], the IC50 was 380 nM.

On to `Fc1ccc(COc2ccc(OCCN3CCCC3)cc2)cc1` [Example 205], for which the IC50 is 900 nM.

Turning to `Clc1cccc(COc2ccc(OCCN3CCCC3)cc2)c1` [Example 206], the 50% inhibitory concentration (IC50) was 200 nM.

For `Fc1ccccc1COc1ccc(OCCN2CCCC2)cc1` [Example 207], the half-inhibitory concentration (IC50) worked out at 220 nM.

Take `Cc1ccc(COc2ccc(OCCN3CCCC3)cc2)cc1` [Example 212]: the half-inhibitory concentration (IC50) amounted to 3000 nM.

`COc1ccc(COc2ccc(OCCN3CCCC3)cc2)cc1` [Example 213]: the IC50 was 1300 nM.

For the compound `c1ccc2c(COc3ccc(OCCN4CCCC4)cc3)cccc2c1` [Example 214], the IC50 turned out to be 2800 nM.

For the compound `NC(=O)C1CCN(CCOc2ccc(Cc3nccs3)cc2)CC1` [Example 231], the 50% inhibitory concentration (IC50) stood at 5000 nM.

In the case of `COc1ccc(Cc2ccc(OCCN3CCC(C(N)=O)CC3)cc2)cc1` [Example 232], the IC50 was 2100 nM.

Regarding `NC(=O)C1CCN(CCOc2ccc(Cc3ccc(Cl)cc3)cc2)CC1` [Example 234], the half-maximal inhibitory concentration (IC50) came to 8000 nM.

Turning to `NC(=O)C1CCN(CCOc2ccc(Cc3ccc(F)cc3)cc2)CC1` [Example 235], the IC50 came to 10000 nM.

As for `NC(=O)C1CCN(CCOc2ccc(Cc3cccnc3)cc2)CC1` [Example 236], the IC50 is 20000 nM.

Turning to `NC(=O)C1CCCN(CCOc2ccc(Cc3ccccc3)cc2)C1` (stereo not drawn) [Example 243], the IC50 is 70 nM.

In the case of `c1ccc(Cc2ccc(OCCN3CCC4(CC3)OCCO4)cc2)cc1` [Example 246], the IC50 came to 7000 nM.

With `CCOC(=O)CCNC(=O)C1CCN(CCOc2ccc(Cc3ccccc3)cc2)CC1` [Example 249], the IC50 is 3200 nM.

Take `CNC(=O)C1CCN(CCOc2ccc(Oc3ccccc3)cc2)CC1` [Example 255]: the IC50 came to 280 nM.

Consider `O=C(CCNCCCOc1ccc(Cc2ccccc2)cc1)OCc1ccccc1` [Example 261], for which the IC50 worked out at 1250 nM.

Consider `CCOC(=O)C1CCCN(CCOc2ccc(Cc3ccccc3)cc2)C1` (stereo not drawn) [Example 270], for which the half-maximal inhibitory concentration (IC50) came to 50000 nM.

With `CCOC(=O)CCNCCCCCOc1ccc(Cc2ccccc2)cc1` [Example 274], the 50% inhibitory concentration (IC50) is 800 nM.

As to `c1ccc(Cc2cnc3c(c2)CC(CN2CCCC2)O3)cc1` (stereo not drawn) [Example 287], the IC50 was determined as 330 nM.

`c1ccc(Oc2ccc3c(c2)CC(CN2CCCC2)O3)cc1` (stereo not drawn) [Example 289]: the IC50 stood at 43 nM.

Turning to `c1ccc(Cc2ccc3c(c2)CCC(CN2CCCC2)O3)cc1` (stereo not drawn) [Example 292], the IC50 turned out to be 7 nM.

As for `CCOC(=O)CC1CCN(CCCOc2ccc(Cc3ccccc3)cc2)CC1` [Example 302], the IC50 worked out at 3000 nM.

On to `COC(=O)CC1CC2CC1N(CCOc1ccc(Cc3ccccc3)cc1)C2` (stereo not drawn) [Example 307], for which the half-inhibitory concentration (IC50) turned out to be 440 nM.

For `CCOC(=O)C1CCN(CCOc2ccc(Cc3ccsc3)cc2)CC1` [Example 313], the IC50 was 25000 nM.

With `COc1ccc(Cc2ccc(OCCN3CCC(C(N)=O)CC3)cc2)cc1F` [Example 314], the IC50 worked out at 1500 nM.

For the compound `COC(=O)CNCCCOc1ccc(Cc2ccccc2)cc1` [Example 318], the IC50 was 2500 nM and 4200 nM.

The test is the same for the next values; noted with them: at 25 μM.
On to `O=C(O)c1ccc(-c2ccc(OCCN3CCCC3)cc2)cc1` [Example 63, 4-[4-[2-(1-pyrrolidinyl)ethoxy]phenyl]benzoic acid], for which the “Recombinant Human LTA4 Hydrolase Assay, % at 25 μM” value came to 40% at 25.

For the compound `O=C(O)c1ccc(Oc2ccc(OCCN3CCCC3)cc2)cc1` [Example 64, 4-[4-[2-(1-pyrrolidinyl)ethoxy]phenoxy]benzoic acid], the “Recombinant Human LTA4 Hydrolase Assay, % at 25 μM” value is 52% at 25.

In the case of `Clc1cccc(Cl)c1COc1ccc(OCCN2CCCC2)cc1` [Example 204], the “Recombinant Human LTA4 Hydrolase Assay, % at 25 μM” value is reported as 49% at 25.

With `Cc1ccccc1COc1ccc(OCCN2CCCC2)cc1` [Example 210], the “Recombinant Human LTA4 Hydrolase Assay, % at 25 μM” value stood at 4% at 25 μM.

Staying with this test, now noted: read-out: Recombinant Human LTA4 Hydrolase Assay, % at 3 μM.
As for `c1ccc(COc2ccc(OCCn3cnc4cccnc43)cc2)cc1` [346 A], the inhibition at 3 µM was determined as 31%.

In the case of `Fc1ccc(Oc2ccc(OCCn3cnc4cccnc43)cc2)cc1` [354 A], the inhibition at 3 µM is 51%.

Consider `Cc1nc(COc2ccc(OCCN3CCCC3)cc2)cs1` [Example 202], for which the inhibition at 3 µM amounted to 44%.

As to `O=C(OCc1ccccc1)[C@@H]1CCCN1CCCOc1ccc(Cc2ccccc2)cc1` [Example 228], the inhibition at 3 µM turned out to be 28%.

As to `CC(C)(C)OC(=O)C1CCCN1CCCOc1ccc(Cc2ccccc2)cc1` (stereo not drawn) [Example 260], the inhibition at 3 µM stood at 14%.

As for `CC(C)(C)OC(=O)CCNCCCOc1ccc(Cc2ccccc2)cc1` [Example 268], the inhibition at 3 µM was 53%.

The test is the same for the next values; noted with them: read-out: Recombinant Human LTA4 Hydrolase Assay, % at 100 μM.
For `c1ccc(Cc2ccc3c(c2)CC(Cn2nnc4cccnc42)O3)cc1` (stereo not drawn) [360 A], the inhibition at 100 µM was found to be 36%.

As for `c1ccc(Cc2ccc3c(c2)CC(Cn2nc4cccnc4n2)O3)cc1` (stereo not drawn) [360 B], the inhibition at 100 µM amounted to 19%.

Regarding `c1ccc(Cc2ccc3c(c2)CC(Cn2nc4ccncc4n2)O3)cc1` (stereo not drawn) [361 A], the inhibition at 100 µM was found to be 24%.

As for `NC(=O)C1CCN(CCCOc2ccc(Cc3ccccc3)cc2)CC1` [Example 226], the inhibition at 100 µM came to 4%.

Turning to `NC(=O)C1CCCN(CCCOc2ccc(Cc3ccccc3)cc2)C1` (stereo not drawn) [Example 244], the inhibition at 100 µM is 15%.

As to `CC1(CN2CCC(C(N)=O)CC2)Cc2cc(Cc3ccccc3)ccc2O1` (stereo not drawn) [Example 286], the inhibition at 100 µM was determined as 41%.

For `CCOC(=O)C1CCN(CCOc2ccc(Cc3cccnc3)cc2)CC1` [Example 311], the inhibition at 100 µM came to 44%.

Regarding `CCOC(=O)C1CCN(CCOc2ccc(Cc3ccc(F)cc3)cc2)CC1` [Example 312], the inhibition at 100 µM is 46%.
